In patent publication US20070026080A1, “Manufacturing process for tigecycline” (Wyeth, priority 2005, published 2007):

Experiment: Strength and degradation profile of tigecycline 20 mg/mL bulk solutions by reversed phase HPLC (effect of temperature, time, pH, dissolved oxygen; Runs A to O)
Format: physicochemical
Settings: 2° C.
Method: The contents of the sample vials are dissolved in diluent. The sample solution is diluted, if necessary, and chromatographed on a reversed phase column using gradient elution. Impurities are determined by comparing the impurity peak areas in the sample preparation chromatogram to the average area of tigecycline peaks in the standard preparation chromatograms obtained concomitantly.
Chromatographic Column—Length about 15 cm, inside diameter about 4.6 mm, packed with Inertsil ODS2, 5 μm size particles or equivalent.
Detector—Ultraviolet spectrophotometric detector capable of operating at 248 nm with a sensitivity of about 0.5 absorbance units full scale.
The results of additional studies to investigate the effect of processing parameters such as temperature, time, and dissolved oxygen content on the purity profile of tigecycline solutions using the following materials, methods and procedures are presented in Tables A to O.
The experiments were run in plastic glove bags under normal laboratory light conditions. Plastic glove boxes will be used to control the headspace of the beakers. The batch size was 200 mL. • 1. Prepare the glove bag with a mixture of nitrogen and air to achieve an oxygen level in the solution as per the design. • 2. Place the jacketed beaker on the magnetic stirrer. Connect it to the cooler. Set the cooler to the desired set point. • 3. Add 200 mL of SWFI in to the beaker. Allow equilibrating. Measure the temperature and oxygen content. When it reaches the desired condition, add accurately weighed API and mix until dissolved. If necessary use spatula to aid dissolution. For pH adjustments, use 4 mL of either 0.1N NaOH or 0.1N HCl and 196 mL of WFI for manufacture. • 4. After complete dissolution, Transfer about 5.5 mL of Solution in vials and stopper them. These vials will be stoppered at the appropriate headspace conditions. Place the vials in appropriate temperature conditions. • 5. Sample the vials at 1, 4, 8, 10, 12 and 24 hours. Send the samples for analysis. Freeze the 10, 12 and 24 samples at −20° C. for analysis the following day. • 6. Measure pH and record color of the solution at each time point. Results
The 1-hour samples were taken directly from the beakers. Samples for later time points were collected in stoppered vials processed in the atmosphere of the bag in order to simulate the headspace conditions then placed in water baths or refrigerator to maintain there respective temperature conditions. This was done to maintain safety in the lab. Disposable plastic glove bags require constant flow of a mixture of nitrogen and air to maintain headspace oxygen level that will result in the desired dissolved oxygen (DO) content in the sample. The pH of samples was measured at each sample points.
Strength and degradation profile was analyzed by HPLC as described above. […] Degradation was slightly higher at higher temperature condition.

[1] = Run #K, 20 mg/mL, pH 8.2, Oxygen 0.1 mg/L, hours 1,4,8,10,12,24 at r6-r11, after 24 hours
[2] = Run #L, pH 7.7, Oxygen = 0.1 mg/L, 1 Hrs
[3] = Run #L, pH 7.7, Oxygen = 0.1 mg/L, 4 Hrs
[4] = Run #L, pH 7.7, Oxygen = 0.1 mg/L, 8 Hrs
[5] = Run #L, pH 7.7, Oxygen = 0.1 mg/L, 10 Hrs
[6] = Run #L, pH 7.7, Oxygen = 0.1 mg/L, 12 Hrs

## CN(C)c1cc(NC(=O)CNC(C)(C)C)c(O)c2c1C[C@H]1C[C@H]3[C@H](N(C)C)C(O)=C(C(N)=O)C(=O)[C@@]3(O)C(O)=C1C2=O [Tigecycline]
[1]
  RRT 0.74 Epimer: 0.17%
  RRT 1.45: 0.08%
  RRT 1.64 Mino: 0.14%
  RRT 1.85 MW = 597: 0.08%
  Strength: 19.067 mg/mL
  Total: 0.55%
[2]
  RRT 0.12 MW = 633: BRL (BRL means below reporting limit (meaning less than 0.05% of tigecycline peak))
  RRT 0.23 MW = 572: BRL (BRL means below reporting limit (meaning less than 0.05% of tigecycline peak))
  RRT 0.50 MW = 601: BRL (BRL means below reporting limit (meaning less than 0.05% of tigecycline peak))
  RRT 0.55 MW = 583: BRL (BRL means below reporting limit (meaning less than 0.05% of tigecycline peak))
  RRT 0.58: 0.08%
  RRT 0.64 9-Amino: BRL (BRL means below reporting limit (meaning less than 0.05% of tigecycline peak))
  RRT 0.74 Epimer: 0.17%
  RRT 0.76: BRL (BRL means below reporting limit (meaning less than 0.05% of tigecycline peak))
  RRT 0.78 MW = 557: BRL (BRL means below reporting limit (meaning less than 0.05% of tigecycline peak))
  RRT 1.12: BRL (BRL means below reporting limit (meaning less than 0.05% of tigecycline peak))
  RRT 1.45: 0.08%
  RRT 1.58: BRL (BRL means below reporting limit (meaning less than 0.05% of tigecycline peak))
  RRT 1.64 Mino: 0.14%
  RRT 1.67 MW = 556: BRL (BRL means below reporting limit (meaning less than 0.05% of tigecycline peak))
  RRT 1.85 MW = 597: 0.07%
  Strength: 19.23 mg/mL
  Total: 0.53%
[3]
  RRT 0.12 MW = 633: BRL (BRL means below reporting limit (meaning less than 0.05% of tigecycline peak))
  RRT 0.23 MW = 572: BRL (BRL means below reporting limit (meaning less than 0.05% of tigecycline peak))
  RRT 0.50 MW = 601: BRL (BRL means below reporting limit (meaning less than 0.05% of tigecycline peak))
  RRT 0.55 MW = 583: BRL (BRL means below reporting limit (meaning less than 0.05% of tigecycline peak))
  RRT 0.58: 0.08%
  RRT 0.64 9-Amino: BRL (BRL means below reporting limit (meaning less than 0.05% of tigecycline peak))
  RRT 0.74 Epimer: 0.17%
  RRT 0.76: BRL (BRL means below reporting limit (meaning less than 0.05% of tigecycline peak))
  RRT 0.78 MW = 557: BRL (BRL means below reporting limit (meaning less than 0.05% of tigecycline peak))
  RRT 1.12: BRL (BRL means below reporting limit (meaning less than 0.05% of tigecycline peak))
  RRT 1.45: 0.07%
  RRT 1.58: BRL (BRL means below reporting limit (meaning less than 0.05% of tigecycline peak))
  RRT 1.64 Mino: 0.15%
  RRT 1.67 MW = 556: BRL (BRL means below reporting limit (meaning less than 0.05% of tigecycline peak))
  RRT 1.85 MW = 597: 0.08%
  Strength: 19.053 mg/mL
  Total: 0.54%
[4]
  RRT 0.12 MW = 633: BRL (BRL means below reporting limit (meaning less than 0.05% of tigecycline peak))
  RRT 0.23 MW = 572: BRL (BRL means below reporting limit (meaning less than 0.05% of tigecycline peak))
  RRT 0.50 MW = 601: BRL (BRL means below reporting limit (meaning less than 0.05% of tigecycline peak))
  RRT 0.55 MW = 583: BRL (BRL means below reporting limit (meaning less than 0.05% of tigecycline peak))
  RRT 0.58: 0.08%
  RRT 0.64 9-Amino: BRL (BRL means below reporting limit (meaning less than 0.05% of tigecycline peak))
  RRT 0.74 Epimer: 0.17%
  RRT 0.76: 0.05%
  RRT 0.78 MW = 557: BRL (BRL means below reporting limit (meaning less than 0.05% of tigecycline peak))
  RRT 1.12: BRL (BRL means below reporting limit (meaning less than 0.05% of tigecycline peak))
  RRT 1.45: 0.08%
  RRT 1.58: BRL (BRL means below reporting limit (meaning less than 0.05% of tigecycline peak))
  RRT 1.64 Mino: 0.13%
  RRT 1.67 MW = 556: BRL (BRL means below reporting limit (meaning less than 0.05% of tigecycline peak))
  RRT 1.85 MW = 597: 0.08%
  Strength: 18.988 mg/mL
  Total: 0.60%
[5]
  RRT 0.12 MW = 633: BRL (BRL means below reporting limit (meaning less than 0.05% of tigecycline peak))
  RRT 0.23 MW = 572: BRL (BRL means below reporting limit (meaning less than 0.05% of tigecycline peak))
  RRT 0.50 MW = 601: BRL (BRL means below reporting limit (meaning less than 0.05% of tigecycline peak))
  RRT 0.55 MW = 583: BRL (BRL means below reporting limit (meaning less than 0.05% of tigecycline peak))
  RRT 0.58: 0.07%
  RRT 0.64 9-Amino: BRL (BRL means below reporting limit (meaning less than 0.05% of tigecycline peak))
  RRT 0.74 Epimer: 0.22%
  RRT 0.76: 0.05%
  RRT 0.78 MW = 557: BRL (BRL means below reporting limit (meaning less than 0.05% of tigecycline peak))
  RRT 1.12: BRL (BRL means below reporting limit (meaning less than 0.05% of tigecycline peak))
  RRT 1.45: 0.07%
  RRT 1.58: BRL (BRL means below reporting limit (meaning less than 0.05% of tigecycline peak))
  RRT 1.64 Mino: 0.13%
  RRT 1.67 MW = 556: BRL (BRL means below reporting limit (meaning less than 0.05% of tigecycline peak))
  RRT 1.85 MW = 597: 0.08%
  Strength: 19.424 mg/mL
  Total: 0.62%
[6]
  RRT 0.12 MW = 633: BRL (BRL means below reporting limit (meaning less than 0.05% of tigecycline peak))
  RRT 0.23 MW = 572: BRL (BRL means below reporting limit (meaning less than 0.05% of tigecycline peak))
  RRT 0.50 MW = 601: BRL (BRL means below reporting limit (meaning less than 0.05% of tigecycline peak))
  RRT 0.55 MW = 583: BRL (BRL means below reporting limit (meaning less than 0.05% of tigecycline peak))
  RRT 0.58: 0.07%
  RRT 0.64 9-Amino: BRL (BRL means below reporting limit (meaning less than 0.05% of tigecycline peak))
  RRT 0.74 Epimer: 0.23%
  RRT 0.76: BRL (BRL means below reporting limit (meaning less than 0.05% of tigecycline peak))
  RRT 0.78 MW = 557: BRL (BRL means below reporting limit (meaning less than 0.05% of tigecycline peak))
  RRT 1.12: BRL (BRL means below reporting limit (meaning less than 0.05% of tigecycline peak))
